Test results reported in PubChem BioAssay AID2060904 (Molecular Pharmacology Branch, DTP, NCI, 2025).

Test system: 349418-098-R-PDC complex spheroid viability
Assay: Anticancer human tumor 349418-098-R-PDC patient-derived lung adenocarcinoma cell line growth inhibition [RAS]
Settings: for IC50: curve of first compound; for viability, T/C: stronger effect = lower value
Text: RAS pathway inhibitors in Combinations in Complex Spheroids
A high-throughput screen of multi-cell type tumor spheroids was designed to identify active combinations of RAS pathway inhibitors and targeted small molecules. Complex spheroids include a stromal component modeled by human endothelial cells (HUVEC) and fibroblasts modeled by human mesenchymal stem cells (MSCs). The concentration ranges selected for each drug and investigational agent were based upon clinically achievable concentrations if the clinical Cmax of the agent was known.
Compounds. The drugs and investigational agents: abemaciclib (NSC768073), cobimetinib (NSC768068), divarasib (GDC6063, NSC841802), docetaxel (NSC628503), GDC-1971 (RLY-1971, NSC841576), gemcitabine (NSC613327), inavolisib (NSC800729), ipatasertib (NSC767898), KB-0742 (NSC834161), MRTX-1133 (NSC836407), osimertinib (NSC779217), RMC-4630 (NSC839698), RMC-6236 (NSC851965), RMC-6291 (NSC852671), Ro-3306 (NSC812927), sapanisertib (NSC764658), SN-38 (NSC673596), staurosporine (NSC755774), SY5609 (NSC837396), and tovorafenib (DAY101, NSC766906), were obtained from the National Cancer Institute (NCI) Developmental Therapeutics Program Chemical Repository. The FDA-approved anticancer drug set is available from the NCI Developmental Therapeutics Program. […] The stock solutions were prepared in dimethyl sulfoxide (DMSO, Sigma-Aldrich, St. Louis, MO, cat. D2650) at 800-fold the tested concentration and stored at -70 degrees C prior to their use. All drugs and investigational agents were tested over a range starting from a high concentration at or near the clinical Cmax and decreasing in half-log increments. If the clinical Cmax for an agent had not been determined, the highest concentration tested was 10 microM.
Cell Culture. All cells were maintained in an incubator at 37 degrees C and 5% CO2 with 95% humidity. The PDC lines were cultured according to standard operating procedures established by the NCI PDMR. All PDCs were thawed and cultured in Matrigel-coated flasks prepared with a working solution of 1X Ham's F-12 nutrient mix, without supplementation (Invitrogen, Waltham, MA, cat. 11765054), 100 U/mL penicillin-streptomycin (Invitrogen, cat. 15140122), and 2.5% Matrigel (Corning Inc., Corning, NY, cat. 354248) for the first three passages. The 362531-283-R-J2-PDC and 782815-120-R-J1-PDC lines were cultured in 6C/Colon 1B media, which includes advanced DMEM/F-12 (Thermo Fisher Scientific, cat. 12634028), 10 mM HEPES (Thermo Fisher Scientific, cat. 15630080), 1X GlutaMAX supplement (Thermo Fisher Scientific, cat. 35050061), 0.1 mg/mL primocin (InvivoGen, San Diego, CA, cat. ant-pm-2), 10% defined fetal bovine serum, heat inactivated (HyClone Laboratories Inc., Logan, UT, cat. SH30070.03HI), 50% L-WRN conditioned media (ATCC, cat. CRL-3276), 1.25 mM N-Acetyl-L-cysteine (Sigma-Aldrich, cat. A9165), 10 mM nicotinamide (Sigma-Aldrich, cat. N0636), 1X B-27 supplement (Thermo Fisher Scientific, cat. 17504044), 1X N-2 supplement (Thermo Fisher Scientific, cat. 17502048), 50 ng/mL human EGF (Thermo Fisher Scientific, cat. PHG0311), and 10 microM Y-27632 dihydrochloride (Tocris Bioscience, cat. 1254). The K12877-001-R-J1-PDC line was cultured in 6I media, which includes all 6C/Colon 1B media plus 10 ng/mL human FGF-10 (PeproTech, cat. 100-26), 1 ng/mL human FGF-2 (PeproTech, cat. 100-18B), 1 µM prostaglandin E2 (Tocris Bioscience, cat. 2296), […] hydrocortisone (Sigma-Aldrich, cat. H4001), and […] bovine insulin (Sigma-Aldrich, cat. I6634). The K86415-001-R-J1-PDC line was cultured in 6D media, which includes all 6C/Colon 1B media components minus the L-WRN conditioned media. The 485176-168-R4-J1-PDC was cultured in PANC media, which includes all 6C/Colon 1B media plus 100 ng/mL human FGF-10 (PeproTech, cat. 100-26), 500 nM SB-431542 (Selleckchem, cat. S1067), and 10 nM gastrin (Tocris Bioscience, cat. 3006). […]

[1] = second compound 0.0316 µM, first compound 0.0316 µM
[2] = second compound 0.0316 µM, first compound 0.1 µM
[3] = second compound 0.0316 µM, first compound 0.316 µM
[4] = second compound 0.0316 µM, first compound 1 µM
[5] = second compound 0.0316 µM, first compound 3.16 µM
[6] = second compound 0.0316 µM, first compound 10 µM
[7] = second compound 0.1 µM, first compound 0.0316 µM
[8] = second compound 0.1 µM, first compound 0.1 µM
[9] = second compound 0.1 µM, first compound 0.316 µM
[10] = second compound 0.1 µM, first compound 1 µM
[11] = second compound 0.1 µM, first compound 3.16 µM
[12] = second compound 0.1 µM, first compound 10 µM
[13] = second compound 0.316 µM, first compound 0.0316 µM
[14] = second compound 0.316 µM, first compound 0.1 µM
[15] = second compound 0.316 µM, first compound 0.316 µM
[16] = second compound 0.316 µM, first compound 1 µM
[17] = second compound 0.316 µM, first compound 3.16 µM
[18] = second compound 0.316 µM, first compound 10 µM
[19] = second compound 1 µM, first compound 0.0316 µM
[20] = second compound 1 µM, first compound 0.1 µM
[21] = second compound 1 µM, first compound 0.316 µM
[22] = second compound 1 µM, first compound 1 µM
[23] = second compound 1 µM, first compound 3.16 µM
[24] = second compound 1 µM, first compound 10 µM
[25] = second compound 3.16 µM, first compound 0.0316 µM
[26] = second compound 3.16 µM, first compound 0.1 µM
[27] = second compound 3.16 µM, first compound 0.316 µM
[28] = second compound 3.16 µM, first compound 1 µM
[29] = second compound 3.16 µM, first compound 3.16 µM
[30] = second compound 3.16 µM, first compound 10 µM
[31] = second compound 10 µM, first compound 0.0316 µM
[32] = second compound 10 µM, first compound 0.1 µM
[33] = second compound 10 µM, first compound 0.316 µM
[34] = second compound 10 µM, first compound 1 µM
[35] = second compound 10 µM, first compound 3.16 µM
[36] = second compound 10 µM, first compound 10 µM
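Further: spheroids exposed to compound for seven days before viability readout.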

**Q.** For `CC(C)NCC(C(=O)N1CCN(c2ncnc3c2C(C)CC3O)CC1)c1ccc(Cl)cc1` (centres undefined) + C#Cc1c(F)ccc2cc(O)cc(-c3ncc4c(N5CC6CCC(C5)N6)nc(OCC56CCCN5CC(F)C6)nc4c3F)c12, which IC50 (second compound 0.0316 µM) is on record?
**A.** 342 nM

**Q.** And the IC50 (second compound 0.1 µM)?
**A.** 572 nM

**Q.** And the IC50 (second compound 0.316 µM)?
**A.** 186 nM

**Q.** And the IC50 (second compound 1 µM)?
**A.** 347 nM

**Q.** And the IC50 (second compound 3.16 µM)?
**A.** 519 nM

**Q.** What about the IC50 (second compound 10 µM) of the same compound?
**A.** 35 nM

**Q.** And the viability, T/C [1]?
**A.** 84%

**Q.** And the viability, T/C [2]?
**A.** 59.1%

**Q.** What about the viability, T/C [3] of the same compound?
**A.** 60.1%

**Q.** And the viability, T/C [4]?
**A.** 29.7%

**Q.** What about the viability, T/C [5] of the same compound?
**A.** 25.2%

**Q.** What about the viability, T/C [6] of the same compound?
**A.** 9.07%

**Q.** What about the viability, T/C [7] of the same compound?
**A.** 62.7%

**Q.** And the viability, T/C [8]?
**A.** 78.9%

**Q.** What about the viability, T/C [9] of the same compound?
**A.** 68.8%

**Q.** What about the viability, T/C [10] of the same compound?
**A.** 32.4%

**Q.** And the viability, T/C [11]?
**A.** 20.9%

**Q.** What about the viability, T/C [12] of the same compound?
**A.** 11.5%

**Q.** What about the viability, T/C [13] of the same compound?
**A.** 72.6%

**Q.** What about the viability, T/C [14] of the same compound?
**A.** 46.6%

**Q.** What about the viability, T/C [15] of the same compound?
**A.** 51.7%

**Q.** What about the viability, T/C [16] of the same compound?
**A.** 31.1%

**Q.** What about the viability, T/C [17] of the same compound?
**A.** 21.5%

**Q.** And the viability, T/C [18]?
**A.** 8.74%

**Q.** What about the viability, T/C [19] of the same compound?
**A.** 75%

**Q.** And the viability, T/C [20]?
**A.** 54.8%

**Q.** What about the viability, T/C [21] of the same compound?
**A.** 62.9%

**Q.** And the viability, T/C [22]?
**A.** 28.8%

**Q.** What about the viability, T/C [23] of the same compound?
**A.** 27.3%

**Q.** And the viability, T/C [24]?
**A.** 7.4%

**Q.** And the viability, T/C [25]?
**A.** 61.9%

**Q.** What about the viability, T/C [26] of the same compound?
**A.** 75.1%

**Q.** And the viability, T/C [27]?
**A.** 55.1%

**Q.** And the viability, T/C [28]?
**A.** 39.2%

**Q.** And the viability, T/C [29]?
**A.** 19.7%

**Q.** And the viability, T/C [30]?
**A.** 10.7%

**Q.** And the viability, T/C [31]?
**A.** 60.7%

**Q.** And the viability, T/C [32]?
**A.** 26.3%

**Q.** What about the viability, T/C [33] of the same compound?
**A.** 28.1%

**Q.** What about the viability, T/C [34] of the same compound?
**A.** 47.3%

**Q.** And the viability, T/C [35]?
**A.** 16.9%

**Q.** And the viability, T/C [36]?
**A.** 3.22%

**Q.** Which results are given for `CC(Nc1ccc2c(c1)OCCn1cc(N3C(=O)OCC3C(F)F)nc1-2)C(N)=O` (centres undefined) + C#Cc1c(F)ccc2cc(O)cc(-c3ncc4c(N5CC6CCC(C5)N6)nc(OCC56CCCN5CC(F)C6)nc4c3F)c12?
**A.** IC50 (second compound 0.0316 µM): 90 nM; IC50 (second compound 0.1 µM): 91.7 nM; IC50 (second compound 0.316 µM): 70 nM; IC50 (second compound 1 µM): 44.2 nM; IC50 (second compound 3.16 µM): 71 nM; IC50 (second compound 10 µM): < 31.6 nM; viability, T/C [1]: 78.3%; viability, T/C [2]: 43.2%; viability, T/C [3]: 37.1%; viability, T/C [4]: 11.6%; viability, T/C [5]: 11.7%; viability, T/C [6]: 11.8%; viability, T/C [7]: 80.4%; viability, T/C [8]: 39.4%; viability, T/C [9]: 39.1%; viability, T/C [10]: 19.9%; viability, T/C [11]: 12.7%; viability, T/C [12]: 11.2%; viability, T/C [13]: 71%; viability, T/C [14]: 39.7%; viability, T/C [15]: 26.8%; viability, T/C [16]: 16.9%; viability, T/C [17]: 15.3%; viability, T/C [18]: 13.7%; viability, T/C [19]: 51.8%; viability, T/C [20]: 45.9%; viability, T/C [21]: 25.5%; viability, T/C [22]: 12.4%; viability, T/C [23]: 16.2%; viability, T/C [24]: 10.6%; viability, T/C [25]: 63.5%; viability, T/C [26]: 42.7%; viability, T/C [27]: 30.5%; viability, T/C [28]: 12.9%; viability, T/C [29]: 12.8%; viability, T/C [30]: 13.5%; viability, T/C [31]: 35.9%; viability, T/C [32]: 28.3%; viability, T/C [33]: 9.51%; viability, T/C [34]: 4.69%; viability, T/C [35]: 5.91%; viability, T/C [36]: 2.82%
